Laboratory results as given in US9309242B2, “Substituted pyrido[2,3-b]pyrazines as FGFR kinase inhibitors” (priority 2011, dated 2016).

Assays:
FGFR2 (h) = FGFR2 (h) (Homo sapiens, UniProt P21802); assay: FGFR2 (enzymatic assay), TR-FRET; assay type: biochemical; conditions: enzymatic assay; read-out: FGFR 2 pIC50 (converted)
Procedure, shortened: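 hFGFR2 150 ng/ml; Btn-Flt3 500 nM; ATP 0.4 μM; 50 mM HEPES pH 7.5, 6 mM MnCl2, 1 mM DTT, 0.1 mM Na3VO4, 0.01% Triton-X-100; 1% DMSO final.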

KDR (h) = KDR (h) (Homo sapiens, UniProt P35968); assay: KDR (VEGFR2) (enzymatic assay), TR-FRET; assay type: biochemical; conditions: read-out: VEGFR 2 (KDR) pIC50 (converted)
Procedure, shortened: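 TR-FRET readout (ex 340, em 620/655 nm) in RFU after EDTA stop with Eu-anti-phosphotyrosine and SA-XL665 for 60 min. The preceding 120-min room-temperature kinase step used 150 ng/ml KDR (h), 3 μM ATP, 500 nM biotinylated Flt3 peptide, MnCl2-containing HEPES buffer pH 7.5, 1% DMSO.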

[1] = tested on: Ba/F3-FGFR1-transfected cells; assay: Ba/F3-FGFR1 (plus IL3) cellular proliferation assay, counterscreen with 10 ng/ml murine IL3; assay type: cell-based; conditions: plus IL3 (10 ng/ml murine IL3, counterscreen); read-out: BAF3-FGFR1 (PLUS IL3) pIC50 (converted)
Procedure, shortened: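 Proliferation read-out: resazurin-based Alamar Blue fluorescence (540/590 nm) after 4 h, following 24 h compound treatment of 20000 Ba/F3-FGFR1 cells per well in 10% FBS RPMI at 37° C. IL3 counterscreen used the same protocol plus 10 ng/ml murine IL3.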

FGFR2 (h), sequence (P21802 22-821): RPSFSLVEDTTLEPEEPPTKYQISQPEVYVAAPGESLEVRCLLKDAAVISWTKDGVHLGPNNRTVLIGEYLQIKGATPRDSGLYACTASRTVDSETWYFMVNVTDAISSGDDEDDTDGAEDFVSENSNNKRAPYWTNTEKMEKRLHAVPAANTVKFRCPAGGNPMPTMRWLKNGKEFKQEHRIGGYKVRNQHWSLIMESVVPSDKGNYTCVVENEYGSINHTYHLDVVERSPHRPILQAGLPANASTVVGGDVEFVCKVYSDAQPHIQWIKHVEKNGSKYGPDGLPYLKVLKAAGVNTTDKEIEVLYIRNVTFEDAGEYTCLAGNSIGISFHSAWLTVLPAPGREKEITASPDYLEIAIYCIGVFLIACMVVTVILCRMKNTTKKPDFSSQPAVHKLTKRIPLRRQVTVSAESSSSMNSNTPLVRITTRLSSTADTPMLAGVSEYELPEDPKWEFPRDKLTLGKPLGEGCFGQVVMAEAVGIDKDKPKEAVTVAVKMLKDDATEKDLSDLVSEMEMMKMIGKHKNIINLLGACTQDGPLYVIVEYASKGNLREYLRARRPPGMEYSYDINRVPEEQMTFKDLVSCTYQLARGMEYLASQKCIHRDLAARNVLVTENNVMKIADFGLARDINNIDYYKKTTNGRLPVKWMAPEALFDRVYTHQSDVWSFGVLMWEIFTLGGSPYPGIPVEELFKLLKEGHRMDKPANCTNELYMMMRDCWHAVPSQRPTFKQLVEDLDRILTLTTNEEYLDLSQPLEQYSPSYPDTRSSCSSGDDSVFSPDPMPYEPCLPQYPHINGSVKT
KDR (h), sequence (P35968 20-1356): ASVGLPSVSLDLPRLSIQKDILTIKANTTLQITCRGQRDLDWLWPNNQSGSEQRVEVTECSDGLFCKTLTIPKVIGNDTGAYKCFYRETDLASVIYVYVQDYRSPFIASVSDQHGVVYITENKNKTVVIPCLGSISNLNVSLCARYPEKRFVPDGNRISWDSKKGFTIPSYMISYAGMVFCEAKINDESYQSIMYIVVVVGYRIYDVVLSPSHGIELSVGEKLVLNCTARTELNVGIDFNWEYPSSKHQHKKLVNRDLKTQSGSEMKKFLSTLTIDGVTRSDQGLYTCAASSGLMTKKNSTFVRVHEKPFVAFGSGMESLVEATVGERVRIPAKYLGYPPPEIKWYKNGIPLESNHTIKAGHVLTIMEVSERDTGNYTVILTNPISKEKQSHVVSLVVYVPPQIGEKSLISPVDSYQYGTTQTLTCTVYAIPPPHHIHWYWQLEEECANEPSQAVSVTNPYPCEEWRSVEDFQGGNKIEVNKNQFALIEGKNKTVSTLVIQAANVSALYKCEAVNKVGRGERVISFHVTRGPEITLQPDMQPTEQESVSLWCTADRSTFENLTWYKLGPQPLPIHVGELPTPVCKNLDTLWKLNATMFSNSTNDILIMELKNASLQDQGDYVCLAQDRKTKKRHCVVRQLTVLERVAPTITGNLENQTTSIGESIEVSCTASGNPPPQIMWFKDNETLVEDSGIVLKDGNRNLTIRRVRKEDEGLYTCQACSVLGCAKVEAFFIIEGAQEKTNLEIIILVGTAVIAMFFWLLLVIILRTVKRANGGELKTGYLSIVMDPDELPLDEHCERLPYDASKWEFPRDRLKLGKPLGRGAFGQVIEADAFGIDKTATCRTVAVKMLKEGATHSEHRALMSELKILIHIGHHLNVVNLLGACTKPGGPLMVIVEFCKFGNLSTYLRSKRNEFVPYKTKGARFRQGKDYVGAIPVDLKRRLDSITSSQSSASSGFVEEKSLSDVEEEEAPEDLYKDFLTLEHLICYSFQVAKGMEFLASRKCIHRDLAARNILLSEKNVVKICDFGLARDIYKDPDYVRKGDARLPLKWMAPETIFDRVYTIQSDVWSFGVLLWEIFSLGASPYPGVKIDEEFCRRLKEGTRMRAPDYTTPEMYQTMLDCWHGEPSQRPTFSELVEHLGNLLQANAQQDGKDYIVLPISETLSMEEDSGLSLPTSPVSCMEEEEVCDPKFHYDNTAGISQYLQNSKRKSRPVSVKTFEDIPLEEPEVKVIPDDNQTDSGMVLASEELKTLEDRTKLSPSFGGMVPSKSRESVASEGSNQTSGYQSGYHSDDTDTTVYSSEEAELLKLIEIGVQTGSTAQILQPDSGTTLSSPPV

Structure (SMILES)	IC50 (FGFR2 (h)) [nM]	IC50 (KDR (h)) [nM]	IC50 [1] [µM]
COc1ccc(Cl)c(N(CC2CCC(=O)N2)c2ccc3ncc(-c4cnn(C)c4)nc3n2)c1Cl (single isomer, unassigned) [Compound 90]	129	> 1000	> 10
COc1cc(OC)c(F)c(N(CCN(C2COC2)C2COC2)c2ccc3ncc(-c4cnn(C)c4)nc3n2)c1F (single isomer, unassigned) [Compound 163]	1.91	8.51	> 10
COc1cc(OC)c(F)c(N(CC2CCOC2)c2ccc3ncc(-c4cnn(C)c4)nc3n2)c1 (single isomer, unassigned) [Compound 170]	2.14	13.5	> 10
COc1cc(OC)c(F)c(N(CC(C)(C)O)c2ccc3ncc(-c4cnn(CC(C)(C)O)c4)nc3n2)c1 (single isomer, unassigned) [Compound 208]	5.25	77.6	> 10
COc1cc(/N=c2\ccc3ncc(-c4cnn(C)c4)nc3n2CC2CCC(=O)N2CCO)c(F)c(OC)c1 (single isomer, unassigned) [Compound 219]	2.24	7.94	> 10
COc1ccc(Cl)c(N(CC2CCC(=O)N2)c2ccc3ncc(-c4cnn(C)c4)nc3n2)c1Cl (stereo not drawn) [Compound 93]	60.3	> 1000	> 10
COc1cc(O)c(F)c(N(Cc2ncc[nH]2)c2ccc3ncc(-c4cnn(C)c4)nc3n2)c1 [Compound 96]	1.58	11.5	> 10
COc1cc(OC)cc(N(Cc2ncc[nH]2)c2ccc3ncc(-c4cn[nH]c4)nc3n2)c1 [Compound 141]	0.933	12	> 10
COc1cc(OC)cc(N(CC2COC2)c2ccc3ncc(-c4cnn(C)c4)nc3n2)c1 [Compound 142]	7.94	74.1	> 10
COc1cc(/N=c2\ccc3ncc(-c4cnn(C)c4)nc3n2CC2COC2)c(F)c(OC)c1 [Compound 143]	1.51	5.01	> 10
COc1cc(OC)c(F)c(N(CC2COC2)c2ccc3ncc(-c4cnn(C)c4)nc3n2)c1 [Compound 144]	2.82	22.9	> 10
COc1cc(OC)c(F)c(N(Cc2nccn2CCO)c2ccc3ncc(-c4cnn(C)c4)nc3n2)c1 [Compound 145]	3.8	25.7	> 10
COc1cc(OC)cc(N(CCN2CCOCC2)c2ccc3ncc(-c4cnn(C)c4)nc3n2)c1 [Compound 146]	4.68	41.7	> 10
COc1cc(/N=c2\ccc3ncc(-c4cnn(C)c4)nc3n2CCN2CCOCC2)cc(OC)c1 [Compound 147]	2.04	5.62	> 10
COc1cc(/N=c2\ccc3ncc(-c4cnn(C)c4)nc3n2CCN2CCOCC2)c(F)c(OC)c1 [Compound 148]	1.91	5.01	> 10
COc1cc(OC)c(F)c(N(CCN2CCOCC2)c2ccc3ncc(-c4cnn(C)c4)nc3n2)c1 [Compound 149]	3.09	15.5	> 10
COc1cc(OC)cc(N(CCN2CCCC2=O)c2ccc3ncc(-c4cnn(C)c4)nc3n2)c1 [Compound 151]	15.1	126	> 10
COc1cc(OC)cc(N(Cc2ncc[nH]2)c2ccc3ncc(-c4ccccc4)nc3n2)c1 [Compound 152]	1.48	15.1	> 10
COc1cc(/N=c2\ccc3ncc(-c4cnn(C)c4)nc3n2Cc2cn[nH]c2)c(F)c(OC)c1 [Compound 155]	1.2	2.45	> 10
COc1cc(/N=c2\ccc3ncc(-c4cnn(C)c4)nc3n2CCN2CCCC2=O)c(F)c(OC)c1 [Compound 156]	2.69	29.5	> 10
COc1cc(OC)c(F)c(N(CCN2CCCC2=O)c2ccc3ncc(-c4cnn(C)c4)nc3n2)c1 [Compound 157]	6.31	46.8	> 10
COc1cc(/N=c2\ccc3ncc(-c4cnn(C)c4)nc3n2CC2CCC(=O)N2C)c(F)c(OC)c1 (stereo not drawn) [Compound 158]	1.86	6.61	> 10
COc1cc(OC)c(F)c(N(CC2CCC(=O)N2C)c2ccc3ncc(-c4cnn(C)c4)nc3n2)c1 (stereo not drawn) [Compound 159]	6.61	83.2	> 10
COc1cc(/N=c2\ccc3ncc(-c4cnn(C)c4)nc3n2CC2CCCOC2)cc(OC)c1 (stereo not drawn) [Compound 165]	2.4	6.31	> 10

Structure (SMILES)	IC50 (FGFR2 (h)) [nM]	IC50 (KDR (h)) [nM]	IC50 [1] [µM]
COc1cc(OC)cc(N(CC2CCCOC2)c2ccc3ncc(-c4cnn(C)c4)nc3n2)c1 (stereo not drawn) [Compound 166]	3.16	55	> 10
COc1cc(/N=c2\ccc3ncc(-c4cnn(C)c4)nc3n2CCN)c(F)c(OC)c1 [Compound 167]	2.19	16.2	> 10
COc1cc(OC)c(F)c(N(CCN)c2ccc3ncc(-c4cnn(C)c4)nc3n2)c1 [Compound 168]	2.04	15.8	> 10
COc1cc(OC)cc(N(Cc2nc(OC)cc(OC)n2)c2ccc3ncc(-c4cnn(C)c4)nc3n2)c1 [Compound 174]	6.92	89.1	> 10
Cn1cc(-c2cnc3ccc(N(Cc4ncc[nH]4)c4c(F)c(F)cc(F)c4F)nc3n2)cn1 [Compound 175]	1.91	219	> 10
COc1cc(OC)c(F)c(N(Cc2ncco2)c2ccc3ncc(-c4cnn(C)c4)nc3n2)c1 [Compound 177]	1.62	10.5	> 10
COc1cc(OC)c(F)c(N(Cc2c(C)noc2C)c2ccc3ncc(-c4cnn(C)c4)nc3n2)c1 [Compound 178]	7.41	61.7	> 10
COc1cc(/N=c2\ccc3ncc(-c4cnn(C)c4)nc3n2Cc2c(C)noc2C)c(F)c(OC)c1 [Compound 179]	2.57	12.3	> 3.02
COc1cc(OC)c(F)c(N(Cc2cc(C)on2)c2ccc3ncc(-c4cnn(C)c4)nc3n2)c1 [Compound 180]	1.62	9.55	> 10
COc1cc(/N=c2\ccc3ncc(-c4cnn(C)c4)nc3n2Cc2cc(C)on2)c(F)c(OC)c1 [Compound 181]	2.19	6.76	> 10
COc1cc(OC)cc(N(Cc2ncc[nH]2)c2ccc3ncc(-c4cccnc4)nc3n2)c1 [Compound 182]	2.04	64.6	> 10
COc1cc(/N=c2\ccc3ncc(-c4cnn(C)c4)nc3n2Cc2cc(C)no2)c(F)c(OC)c1 [Compound 184]	2.19	4.79	> 10
COc1cc(OC)c(F)c(N(Cc2cc(C)no2)c2ccc3ncc(-c4cnn(C)c4)nc3n2)c1 [Compound 185]	1.51	17.8	> 10
COc1cc(OC)c(F)c(N(Cc2ncc[nH]2)c2ccc3ncc(-c4cn[nH]c4)nc3n2)c1 [Compound 190]	1.29	7.94	> 10
COc1cc(OC)c(F)c(N(Cc2ncc[nH]2)c2ccc3ncc(-c4cccnc4)nc3n2)c1 [Compound 190a]	2.04	28.8	> 10
COc1cc(OC)c(F)c(N(Cc2cnn(C)c2)c2ccc3ncc(-c4cnn(C)c4)nc3n2)c1 [Compound 195]	2.04	11.5	> 10
COc1cc(/N=c2\ccc3ncc(-c4cnn(C)c4)nc3n2Cc2cnn(C)c2)c(F)c(OC)c1 [Compound 196]	2.14	3.98	> 10
COc1cc(OC)cc(N(Cc2nn[nH]n2)c2ccc3ncc(-c4cnn(C)c4)nc3n2)c1 [Compound 197]	11.2	145	> 10
COc1cc(OC)cc(N(Cc2ncc[nH]2)c2ccc3ncc(-c4ccn(C)c4)nc3n2)c1 [Compound 198]	1.07	4.57	> 10
COc1cc(OC)c(F)c(N(Cc2ncc[nH]2)c2ccc3ncc(-c4ccccc4)nc3n2)c1 [Compound 200]	1.7	~9.55	> 10
COc1cc(OC)cc(N(Cc2ncc[nH]2)c2ccc3ncc(-c4ccncc4)nc3n2)c1 [Compound 202]	1.74	61.7	> 10
COc1cc(OC)cc(N(Cc2nncn2CCO)c2ccc3ncc(-c4cnn(C)c4)nc3n2)c1 [Compound 204]	11	302	> 10
COc1cc(OC)cc(N(Cc2ncn(CCO)n2)c2ccc3ncc(-c4cnn(C)c4)nc3n2)c1 [Compound 205]	5.13	38.9	> 10
CCOCc1c[nH]c(CN(c2ccc3ncc(-c4cnn(C)c4)nc3n2)c2cc(OC)cc(OC)c2F)n1 [Compound 206]	4.17	27.5	> 10
